According to patent US10494380B2, “Nitrogen-containing tricyclic derivatives having HIV replication inhibitory activity” (priority 2015, dated 2019):
Like-named read-outs stand apart in the source and are kept apart here.

Tests used:
[1] = test system: HIV (HTLV-IIIB strain); experiment: HIV replication inhibition assay (Test Example 1; MT-4 cells, MTT); assay type: cell-based; conditions: MT-4 cells, MTT; for EC50: read-out: EC50; for EC90: read-out: EC90
Description: HIV (HTLV-IIIB strain) persistent infected human T cell strain Molt-4 clone8 was cultured in RPMI-1640 medium supplemented with 10% fetal bovine serum and the supernatant was filtered, then the virus titer was measured and stored at −80° C. Each anti-human immunodeficiency virus active substance was diluted with the above culture medium to the designated concentration, which was dispensed into 96-well microtiter plate by 50 μL. Next, 100 μL of MT-4 cell suspension (2.5×10^4 cells) was dispensed into each well, then 50 μl of the above HIV-containing supernatant diluted with the above culture medium was added thereto (60 pfu (plaque forming unit)).
Cell mixture was cultured at 37° C. in CO2 incubator for four days, then 30 μL of MTT (3-(4,5-dimethylthiazole-2-yl)-2,5-diphenyltetrazolyum bromide) reagent (5 mg/mL in PBS) was added to all wells followed by incubation for 1 hour. In this step, MTT was reduced to insoluble formazan in living cells. To elute generated formazan 150 μL of the culture supernatant was removed from all wells, then 150 μL of cell lysis solution (10% Triton X-100 and 0.4% (v/v)-HCl containing isopropanol) was added thereto, followed by shaking with a plate mixer. The formazan was measured with micro plate reader at OD: 560 nm and 690 nm (reference wavelength) and the result was compared with the reference wells. EC50 and EC90 mean the compound concentration at which cytotoxicity caused by virus infection is inhibited 50% and 90%, respectively.

[2] = test system: T125A mutant virus (HIV-1 NL-432 recombinant molecular clone, IN gene); experiment: HIV replication inhibition assay against integrase 124/125 mutant virus (Test Example 2); assay type: cell-based
Summary of the method: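 MT-4 cells (2.5×10^4 per well) infected with 60 pfu of 293T-derived HIV-1 NL-432 clone carrying integrase 124/125 point mutations, in presence of compound, cultured 4 days at 37 °C. Viability by MTT formazan at 560/690 nm; EC50 = concentration inhibiting 50% of virus-induced cytotoxicity.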

[3] = test system: HIV; assay type: cell-based; conditions: EC50 in the presence of human serum (25%) versus without human serum, MT-4 cells
Summary of the method: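 Compound is preincubated 1 h at room temperature with human serum, or with medium alone as the serum-free control. MT-4 cells infected with HIV (1 h, 37° C) are added and cultured 4 days. EC50 is determined with and without serum; their ratio gives the potency shift.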

[4] = test system: sheep red blood cells (RBC); experiment: Photohemolysis test (Test Example 13); assay type: cell-based; conditions: 0.0008 to 0.1 w/v %, 10 J/cm2 UV-irradiation (290-400 nm)
From the text: Aliquots of sheep red blood cells (RBC) suspension prepared with medium to make a 2.5 v/v % concentration are dispensed into microplates. The compound of the present invention was desolved with a vehicle to make target concentrations and then these solutions were immediately added (in concentrations of 0.0008 to 0.1 w/v %) into the microplates. The mixtures on the microplates were exposed to 10 J/cm2 of UV-irradiation (UV-A and UV-B, 290-400 nm) with a GL20SE lamp (SANKYO DENKI) and a FL20S-BLB lamp (Panasonic). After the UV-irradiation, the mixtures were centrifuged. Aliquots of supernatant were transferred to a microplate. Absorbance of the supernatants was measured at 540 nm and 630 nm for judgement of the potential of phototoxicity. In the study, two endpoints were evaluated in biomembrane impairment (% of photohemolysis index; PI) and hyperoxidation of lipid membrane (methemoglobin formation; met-Hb) with the absorbance at 540 nm and 630 nm, respectively. PI and met-Hb were assessed based on the negative criteria (−), PI<10% and changes in absorbance at 630 nm<0.05, respectively. All else was judged as positive (+).

[5] = biological target: CYP3A4 (Homo sapiens (Human), UniProt P08684); experiment: CYP3A4 (MDZ) MBI test (Test Example 6); conditions: pooled human liver microsomes, midazolam 1-hydroxylation, preincubation 0 or 30 min
Chain of CYP3A4 (P08684 whole entry): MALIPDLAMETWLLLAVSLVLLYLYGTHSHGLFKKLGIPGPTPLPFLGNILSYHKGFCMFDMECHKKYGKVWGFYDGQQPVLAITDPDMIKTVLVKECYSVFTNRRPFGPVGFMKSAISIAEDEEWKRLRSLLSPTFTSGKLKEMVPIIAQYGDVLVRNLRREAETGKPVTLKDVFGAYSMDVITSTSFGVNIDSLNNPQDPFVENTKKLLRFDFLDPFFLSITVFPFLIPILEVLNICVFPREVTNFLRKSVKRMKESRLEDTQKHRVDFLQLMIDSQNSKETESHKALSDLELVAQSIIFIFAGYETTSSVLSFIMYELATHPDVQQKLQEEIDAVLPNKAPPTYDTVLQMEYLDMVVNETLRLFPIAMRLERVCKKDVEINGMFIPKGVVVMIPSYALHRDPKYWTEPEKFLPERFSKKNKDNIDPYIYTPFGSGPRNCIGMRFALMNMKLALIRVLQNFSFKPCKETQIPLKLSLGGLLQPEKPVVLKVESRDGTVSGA

[6] = biological target: CYP2C9 (Homo sapiens (Human), UniProt P11712); experiment: CYP inhibition assay, tolbutamide methyl-hydroxylation (Test Example 4); assay type: in vitro ADME; conditions: pooled human hepatic microsome, 100 μmol/L tolbutamide, 15 minutes, 37° C.
Chain of CYP2C9 (P11712 whole entry): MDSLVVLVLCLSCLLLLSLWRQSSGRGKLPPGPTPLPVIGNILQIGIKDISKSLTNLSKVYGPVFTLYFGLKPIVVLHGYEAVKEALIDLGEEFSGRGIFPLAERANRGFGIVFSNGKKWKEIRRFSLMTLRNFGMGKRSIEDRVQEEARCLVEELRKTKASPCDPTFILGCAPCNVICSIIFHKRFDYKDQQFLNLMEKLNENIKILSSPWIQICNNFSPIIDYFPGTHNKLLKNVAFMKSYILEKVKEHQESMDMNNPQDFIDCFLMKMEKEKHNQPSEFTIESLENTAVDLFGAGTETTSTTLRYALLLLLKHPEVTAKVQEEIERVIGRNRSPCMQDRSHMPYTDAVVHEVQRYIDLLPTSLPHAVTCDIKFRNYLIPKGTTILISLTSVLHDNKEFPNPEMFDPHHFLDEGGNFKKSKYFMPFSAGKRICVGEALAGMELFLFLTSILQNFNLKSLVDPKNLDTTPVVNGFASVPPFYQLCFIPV
Description: Using commercially available pooled human hepatic microsome, and employing, as markers, 7-ethoxyresorufin O-deethylation (CYP1A2), tolbutamide methyl-hydroxylation (CYP2C9), mephenytoin 4′-hydroxylation (CYP2C19), dextromethorphan O-demethylation (CYP2D6), and terfenadine hydroxylation (CYP3A4) as typical substrate metabolism reactions of human main five CYP enzyme forms (CYP1A2, 2C9, 2C19, 2D6, 3A4) an inhibitory degree of each metabolite production amount by a test compound was assessed.
The reaction conditions were as follows: substrate, 0.5 μmol/L ethoxyresorufin (CYP1A2), 100 μmol/L tolbutamide (CYP2C9), 50 μmol/L S-mephenytoin (CYP2C19), 5 μmol/L dextromethorphan (CYP2D6), 1 μmol/L terfenedine (CYP3A4); reaction time, 15 minutes; reaction temperature, 37° C.; enzyme, pooled human hepatic microsome 0.2 mg protein/mL; test drug concentration, 1, 5, 10, 20 μmol/L (four points).
Each five kinds of substrates, human hepatic microsome, and a test drug in 50 mmol/L Hepes buffer as a reaction solution was added to a 96-well plate as the composition ad described above, NADPH, as a coenzyme was added to initiate metabolism reactions as markers and, after the incubation at 37° C. for 15 minutes, a methanol/acetonitrile=1/1 (V/V) solution was added to stop the reaction. After the centrifugation at 3000 rpm for 15 minutes, resorufin (CYP1A2 metabolite) in the supernatant was quantified by a fluorescent multilabel counter and tolbutamide hydroxide (CYP2C9 metabolite), mephenytoin 4′ hydroxide (CYP2C19 metabolite), dextrorphan (CYP2D6 metabolite), and terfenadine alcohol (CYP3A4 metabolite) were quantified by LC/MS/MS.

[7] = Human immunodeficiency virus 1, MT4, 96 h, HIV (HTLV-IIIB strain), four days
[8] = Human immunodeficiency virus 1, MT4, read-out: EC50 against T125A mutant virus, T125A mutant virus (HIV-1 NL-432 IN gene), MT-4 cells, MTT
[9] = HIV (HTLV-IIIB strain), four days
[10] = T125A mutant virus (HIV-1 NL-432 IN gene), MT-4 cells, MTT, read-out: EC50 against T125A mutant virus

| Compound | EC50 [1, 7] [nM] | EC90 [1, 7] [nM] | EC50 [2, 8] [nM] | Potency shift value [3] | Photohemolysis test, potential of phototoxicity (PI and met-Hb) [4] | CYP3A4 (MDZ) MBI, shifted IC [5] | EC50 [1, 9] [nM] | EC90 [1, 9] [nM] | EC50 [2, 10] [nM] | IC50 [6] [nM] | EC50 ([1]; HIV HTLV-IIIB strain, cultured four days) [nM] |
| --- | --- | --- | --- | --- | --- | --- | --- | --- | --- | --- | --- |
| Cc1ccc(-c2c([C@H](OC(C)(C)C)C(=O)O)c(C)c3c4c2cc(C)n4CCN3C)cc1 [Compound I-001] | 0.69 | 1.1 | 4.7 | 13 | (−) (negative criteria (−), PI<10% and changes in absorbance at 630 nm<0.05, respectively) |  |  |  |  |  |  |
| Cc1ccc(-c2c([C@H](OC(C)(C)C)C(=O)O)c(C)c3c4c2cc(C)n4CCN3S(C)(=O)=O)cc1 [Compound I-003] | 1.3 | 1.7 | 8.9 | 14 | (−) (negative criteria (−), PI<10% and changes in absorbance at 630 nm<0.05, respectively) | (−) (When a shifted IC was 1.0 or less, this was defined as negative) |  |  |  |  |  |
| Cc1c([C@H](OC(C)(C)C)C(=O)O)c(-c2ccc(Cl)cc2)c2cc(C)n3c2c1N(C)CC3 [Compound I-012] | 0.77 | 1.1 | 3.8 | 13 | (−) (negative criteria (−), PI<10% and changes in absorbance at 630 nm<0.05, respectively) |  |  |  |  |  |  |
| Cc1c([C@H](OC(C)(C)C)C(=O)O)c(-c2ccc(Cl)cc2)c2cc(C)n3c2c1N(S(C)(=O)=O)CC3 [Compound I-019] |  |  |  | 16 |  | (−) (When a shifted IC was 1.0 or less, this was defined as negative) | 1.2 | 1.6 | 6.6 |  |  |
| COCCN1CCn2c(C)cc3c(-c4ccc(C)cc4)c([C@H](OC(C)(C)C)C(=O)O)c(C)c1c32 [Compound I-026] | 0.99 | 1.6 | 13 | 13 |  |  |  |  |  | > 20000 |  |
| Cc1c([C@H](OC(C)(C)C)C(=O)O)c(-c2ccc(F)cc2)c2cc(C)n3c2c1N(C)CC3 [Compound I-048] | 1.2 | 1.5 | 11 | 9.2 | (−) (negative criteria (−), PI<10% and changes in absorbance at 630 nm<0.05, respectively) |  |  |  |  | > 20000 |  |
| Cc1c([C@H](OC(C)(C)C)C(=O)O)c(-c2ccc(Cl)cc2)c2cc(C)n3c2c1N(c1ncccn1)CC3 [Compound I-085] |  |  |  | 22 | (−) (negative criteria (−), PI<10% and changes in absorbance at 630 nm<0.05, respectively) |  | 0.54 | 0.58 | 3.7 |  |  |
| Cc1c([C@H](OC(C)(C)C)C(=O)O)c(-c2ccc(Cl)cc2)c2cc(C)n3c2c1N(CCN(C)C)[C@H](C)C3 [Compound I-112] | 4.9 | 11 | 18 | 3.5 | (−) (negative criteria (−), PI<10% and changes in absorbance at 630 nm<0.05, respectively) |  |  |  |  | > 20000 |  |
| Cc1ccc(-c2c([C@H](OC(C)(C)C)C(=O)O)c(Cl)c3c4c2cc(C)n4CCN3C)cc1 [Compound I-187] |  |  |  | 11 |  | (−) (When a shifted IC was 1.0 or less, this was defined as negative) |  | 2.2 | 4.8 |  | 1 |
| CCOc1cnc(N2CCn3c(C)cc4c(-c5ccc(C)cc5)c([C@H](OC(C)(C)C)C(=O)O)c(C)c2c43)nc1 [Compound I-197] | 1.3 | 2.2 |  | 32 | (−) (negative criteria (−), PI<10% and changes in absorbance at 630 nm<0.05, respectively) |  |  |  |  | > 20000 |  |
| Cc1ccc(-c2c([C@H](OC(C)(C)C)C(=O)O)c(Cl)c3c4c2cc(C)n4CCN3CCN(C)C)cc1 [Compound I-265] | 13 | 30 | 44 | 2.5 |  |  |  |  |  |  |  |
| [2H]C([2H])([2H])Oc1cnc(N2CCn3c(C)cc4c(-c5ccc(C)cc5)c([C@H](OC(C)(C)C)C(=O)O)c(C)c2c43)nc1 [Compound I-266] | 1.3 | 2.1 | 3.7 | 23 |  |  |  |  |  |  |  |
| Cc1ccc(-c2c([C@H](OC(C)(C)C)C(=O)O)c(C)c3c4c2cc(C)n4CCN3c2ncc(OCC3COC3)cn2)cc1 [Compound I-268] | 1.5 | 2.1 | 4.8 | 19 |  |  |  |  |  |  |  |
| Cc1ccc(-c2c([C@H](OC(C)(C)C)C(=O)O)c(C)c3c4c2cc(C)n4CCN3c2ncc(N3CCOCC3)cn2)cc1 [Compound I-272] | 1.6 | 2 | 4.3 | 16 |  |  |  |  |  |  |  |
| Cc1ccc(-c2c([C@H](OC(C)(C)C)C(=O)O)c(C)c3c4c2cc(C)n4CCN3c2ncc(OCCN3CCOCC3)cn2)cc1 [Compound I-276] | 1.5 | 2.5 | 5.1 | 5.9 |  |  |  |  |  |  |  |
| Cc1ccc(-c2c([C@H](OC(C)(C)C)C(=O)O)c(C)c3c4c2cc(C)n4CCN3c2ncc(O[C@@H]3CCN(C)C3)cn2)cc1 [Compound I-279] | 5.1 | 7.7 | 13 | 3.5 |  |  |  |  |  |  |  |
| Cc1ccc(-c2c([C@H](OC(C)(C)C)C(=O)O)c(C)c3c4c2cc(C)n4CCN3c2ncc(OCF)cn2)cc1 [Compound I-282] | 1.4 | 2.1 | 4 | 36 |  |  |  |  |  |  |  |
| Cc1ccc(-c2c([C@H](OC(C)(C)C)C(=O)O)c(C)c3c4c2cc(C)n4CCN3c2ccc(C)nn2)cc1 [Compound I-287] | 1.4 | 2.2 | 5.1 | 12 |  |  |  |  |  |  |  |
